Data on one molecule can be found in patent US20250387331A1, “PROSTAGLANDIN ANALOGS AND METHODS FOR SUSTAINED GLAUCOMA MANAGEMENT” (Peregrine Ophthalmic PTE LTD, priority 2024, published 2025).

Data set [1] has as its system rabbit eye. The settings on record: in vivo.
Procedure: OCT macula were captured at baseline, at week 1, and at 4 week intervals thereafter.
P values were calculated using a 2 tailed t-test.
Data set [2] deals with rabbit eye. The data set can be described thus: IOP after suprachoroidal liposomal latanoprost or daily topical latanoprost (Example 2). The class given is in vivo, Dutch-Belt rabbits. To be noted: daily eye drops 0.005% for two weeks. The method, then: A suprachoroidal injector (SupraMedical, Israel) was used that has a 30-gauge needle attached to an extension tubing connected to a 1 ml syringe. The length of the injector is adjusted by inputting readings of scleral thickness combined with a correction factor, supplied on a calibration table from the manufacturer. The scleral thickness was determined by ultrasound bio-microscopy (UBM). After the depth dial was set to the correct position, the plunger of the injector and the syringe were depressed simultaneously. Injections were delivered over 5-10 seconds. After the drug formulation or control was delivered, the plunger was released, and the injector gradually removed.
Rabbits receiving suprachoroidal injection had their scleral thickness measured with Optovue RTVue OCT. The thickness of the sclera was measured at 3 mm posterior to the corneoscleral junction. An average of three readings were taken to determine the mean scleral thickness. The length of the needle on the injector was subsequently calibrated by adding 300 μm to the mean scleral thickness. […]
Four Dutch-Belt rabbits (n=8 eyes) were used in this study. Baseline IOP was measured using a calibrated Tonopen XL® (Reichert Ophthalmic Instruments, Depew, NY). […] Animals were handled consistently to ensure stable IOP readings. […]
Three readings were taken for each eye and an average obtained. […]

On to `CC(C)OC(=O)CCC/C=C\C[C@@H]1[C@@H](CC[C@@H](O)CCc2ccccc2)[C@H](O)C[C@@H]1O` [Topical latanoprost, latanoprost], for which the Mean retinal thickness with rabbit eye [1] was 131.44 μm. In the data set with rabbit eye [2], the “maximum decrease in IOP” value worked out at 38%.
